Measured values published in ChEMBL document CHEMBL1126816, “Inhibition of human leukocyte elastase. 6. Inhibition by 6-substituted penicillin esters” (Bioorg Med Chem Lett, 1993).

What was measured:
[1] = target: T1, Neutrophil elastase (Homo sapiens, UniProt P08246); assay: Inhibitory concentration required against Human Leukocyte Elastase (HLE) for 50% reduction in rate of hydrolysis of (suc-Ala-Ala-Pro-Ala-p-NA) peptide
T1 sequence (P08246 whole entry): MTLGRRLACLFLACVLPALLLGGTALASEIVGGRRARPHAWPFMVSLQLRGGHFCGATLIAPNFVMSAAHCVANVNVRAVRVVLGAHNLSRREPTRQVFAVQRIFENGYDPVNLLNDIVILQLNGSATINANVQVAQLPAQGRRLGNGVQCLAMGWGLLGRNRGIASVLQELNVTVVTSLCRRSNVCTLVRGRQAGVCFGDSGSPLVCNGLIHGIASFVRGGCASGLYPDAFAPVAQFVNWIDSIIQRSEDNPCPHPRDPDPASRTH

[2] = target: T1, Neutrophil elastase; assay: Inhibitory concentration required against Human Leukocyte Elastase (HLE) for 50% reduction in rate of hydrolysis of (suc-Ala-Ala-Pro-Ala-p-NA) peptide;compound was inactive

Row | Structure (SMILES) | IC50 [1] | IC50 [2]
1 | CC1(C)[C@H](C(=O)OCc2ccccc2)N2C(=O)[C@@](C)(NC(=O)C(F)(F)F)[C@H]2S1(=O)=O | > 20 µM | –
2 | CC1(C)[C@H](C(=O)OCc2ccccc2)N2C(=O)[C@H](Cl)[C@H]2S1(=O)=O | 14 µM | –
3 | CC1(C)[C@H](C(=O)OCc2ccccc2)N2C(=O)[C@H](COC(=O)NCc3ccccc3)[C@H]2S1(=O)=O | 4 µM | –
4 | CO[C@H]1C(=O)N2[C@@H](C(=O)OC(C)(C)C)C(C)(C)S(=O)(=O)[C@H]12 | > 20 µM | –
5 | CO[C@]1(NC(=O)C(F)(F)F)C(=O)N2[C@@H](C(=O)OCc3ccccc3)C(C)(C)S(=O)(=O)[C@@H]21 | 0.8 µM | –
6 | CC1(C)[C@H](C(=O)OCC(F)(F)F)N2C(=O)[C@@H](NC(=O)C(F)(F)F)[C@H]2S1(=O)=O | 3 µM | –
7 | CC1(C)[C@H](C(=O)OCc2ccccc2)N2C(=O)[C@H](NC(=O)C(F)(F)F)[C@H]2S1(=O)=O | 0.15 µM | –
8 | CC(=O)O[C@H]1C(=O)N2[C@@H]1SC(C)(C)[C@@H]2C(=O)OCc1ccccc1 | 10 µM | –
9 | CC1(C)[C@H](C(=O)OCc2ccccc2)N2C(=O)[C@@H](COC(=O)NCc3ccccc3)[C@H]2S1(=O)=O | 0.7 µM | –
10 | CC1(C)[C@H](C(=O)OCc2ccccc2)N2C(=O)[C@@H](NC(=O)C(F)(F)F)[C@H]2S1(=O)=O | – | 2 µM
11 | CN(C(=O)C(F)(F)F)[C@H]1C(=O)N2[C@@H](C(=O)OCc3ccccc3)C(C)(C)S(=O)(=O)[C@H]12 | 0.2 µM | –
12 | C[C@H](OC(=O)NCc1ccccc1)[C@H]1C(=O)N2[C@@H](C(=O)OCc3ccccc3)C(C)(C)S(=O)(=O)[C@H]12 | 7 µM | –
13 | COC(=O)[C@@H]1N2C(=O)[C@H](OC)[C@H]2S(=O)(=O)C1(C)C | 20 µM | –
14 | CC(=O)O[C@H]1C(=O)N2[C@@H](C(=O)OCc3ccccc3)C(C)(C)S(=O)(=O)[C@H]12 | 0.2 µM | –
15 | CO[C@@]1(NC(=O)C(F)(F)F)C(=O)N2[C@@H](C(=O)OCc3ccccc3)C(C)(C)S(=O)(=O)[C@@H]21 | 9 µM | –
16 | CC(=O)O[C@H]1C(=O)N2[C@@H](C(=O)OCc3ccccc3)C(C)(C)[S+]([O-])[C@@H]12 (stereo not given in full) | 5 µM | –
17 | C[C@@H](OC(=O)NCc1ccccc1)[C@@H]1C(=O)N2[C@@H](C(=O)OCc3ccccc3)C(C)(C)S(=O)(=O)[C@H]12 | 10 µM | –
18 | CC1(C)[C@H](C(=O)OCc2ccccc2)N2C(=O)[C@H](OC(=O)COc3ccccc3)[C@H]2S1(=O)=O | 5 µM | –
19 | CC1(C)[C@H](C(=O)OCC(F)(F)F)N2C(=O)[C@H](NC(=O)C(F)(F)F)[C@H]2S1(=O)=O | 0.1 µM | –
20 | CC[C@@]1(NC(=O)C(F)(F)F)C(=O)N2[C@@H](C(=O)OCc3ccccc3)C(C)(C)S(=O)(=O)[C@@H]21 | 3 µM | –
21 | CCO[C@H]1C(=O)N2[C@@H](C(=O)OCc3ccccc3)C(C)(C)S(=O)(=O)[C@H]12 | 2 µM | –
22 | CC1(C)S[C@@H]2[C@@H](NC(=O)C(F)(F)F)C(=O)N2[C@H]1C(=O)OCc1ccccc1 | 4 µM | –
23 | Cc1ccc(S(=O)(=O)O[C@H]2C(=O)N3[C@@H](C(=O)OCc4ccccc4)C(C)(C)S(=O)(=O)[C@H]23)cc1 | 0.05 µM | –
24 | C[C@@H](OC(=O)NCc1ccccc1)[C@H]1C(=O)N2[C@@H](C(=O)OCc3ccccc3)C(C)(C)S(=O)(=O)[C@H]12 | 0.7 µM | –
25 | CN(C(=O)C(F)(F)F)[C@@H]1C(=O)N2[C@@H](C(=O)OCc3ccccc3)C(C)(C)S(=O)(=O)[C@H]12 | 0.7 µM | –
26 | CC1(C)[C@H](C(=O)OCc2ccccc2)N2C(=O)[C@H](OCc3ccccc3)[C@H]2S1(=O)=O | 4 µM | –
27 | CC1(C)[C@H](C(=O)OCc2ccccc2)N2C(=O)[C@H](OC(=O)Cc3ccccc3)[C@H]2S1(=O)=O | 4 µM | –
28 | CO[C@H]1C(=O)N2[C@@H](C(=O)OCC(F)(F)F)C(C)(C)S(=O)(=O)[C@H]12 | 4 µM | –
29 | C[C@H](OC(=O)NCc1ccccc1)[C@@H]1C(=O)N2[C@@H](C(=O)OCc3ccccc3)C(C)(C)S(=O)(=O)[C@H]12 | 0.3 µM | –
30 | CC1(C)S[C@@H]2[C@H](NC(=O)C(F)(F)F)C(=O)N2[C@H]1C(=O)OCc1ccccc1 | 12 µM | –
